Test results taken from patent publication US8796241B2, “Therapy of tumors and infectious agents deficient in methylthioadenosine phosphorylase” (priority 2007, dated 2014).
Marks after values point to notes of the source that are not given here.

What was measured:
[1] = tested on: human and mouse tumor cells; assay: Killing of tumor cells by adenine analogs (Applicants' findings, no method given); type: cell-based
MTAP(−) A549 cells [2] = assay: Clonogenic assay of A549 cells; type: cell-based, human
Procedure: (§1) Cell viability of adherent cell types was measured by clonogenic assay as follows: after releasing cells with trypsin and removing a portion of the cell suspension for Coulter counting, the remainder of the cell suspension was plated in serial dilutions in growth medium, without drugs. After a period sufficient for clones to reach a size visible by eye (usually 2 to 3 weeks), clones were stained with crystal violet in a saline/methanol solution. Dishes that had fewer than 100 clones were deemed suitable for counting. From these counts and from the dilution factors, the approximate number of viable cells, in the parent treatment dishes, was calculated. […] In clonogenic assays, clone size was often variable, especially after treatment with toxic drugs. Moreover, many of the very small clones may have arisen from cells detached during the weeks of incubation. […] Cloning efficiency for healthy, growing A549 cells was about 50%; for HF cells, efficiency was quite variable, ranging from 25 to 75% (perhaps because the HF cell stock varied, from experiment to experiment, in passage number).
A549 cells were incubated for 4 days with additions shown below, and viable cells measured by clonogenic assay. (Results shown are approximate; see Methods) Cell count in dish at start: 40,000
(§2) • MTAP(−) A549 lung tumor cell cultures were treated with F-Ade, with or without MTA, 5′-dAdo, or adenine (Ade), for three days. Coulter counts of cells, and viable cells as determined by clonogenic assay, are shown below: • Initial cell number: 10,340*
• A549 cell cultures were treated with DAP, with or without 5′-dAdo or adenine, for three days. After trypsinization, one-fourth of the cell suspension was counted, and raw data is shown below, with duplicate counts for each sample. The cell suspension was also serially diluted for clonogenic assay. • Counts at start of experiment: Dish one: 36,480; 39,160; Dish two: 52,680; 51,360. • Initial viable cells by clonogenic assay: 180,000.
• Cell cultures were treated with MTX or alanosine for one day. DAP was then added and 3 days later, cells were trypsinized and serially diluted for clonogenic assay. Results are shown below: • Initial viable cells: 146,000
• A549 cells were plated, and after they had adhered to the substrate, medium was changed to methionine-free medium with 10% dialyzed serum. L-ethionine (Eth) and MTA were added, and after 4 days, cell cultures were trypsinized and serially diluted for clonogenic assay. • Initial number of viable cells: 160,000*
• A549 cultures were treated with 6-thioguanine (TG) or 2,6,diaminopurine (DAP), or both, for 3 days. • Initial viable cells: 275,000 • After 3 days: […]

MTAP(+) HF cells [3] = assay: Clonogenic assay of HF cells; type: cell-based, human
Procedure: as §1
• B. F-Ade was added to cultures of MTAP(+) HF cells, with or without 5′-dAdo, for 3 days. Cultures were then trypsinized and serially diluted for clonogenic assay. • Initial number of viable cells per dish: 45,000 • Viable cells after 3 days shown below:
• HF cells were plated, and after they had adhered to the substrate, medium was changed to methionine-free medium, with 10% dialyzed serum. • Initial Coulter count: 73,000*; viable cells: 88,000 • After 3 days in methionine-free medium, with or without L-ethionine (Eth) or MTA: […]

MTAP(−) A549 cells [4] = assay: Coulter counts of A549 cell cultures; type: cell-based, human; conditions: three days, MTA, 5′-dAdo or Ade 40 μM where present, initial 10,340, x4 = cells per dish
Procedure: (§3) For adherent cell types, cell numbers were determined periodically by releasing cells with trypsin (dead cells that were no longer adherent were removed by two prior rinses of the culture dish) and placing a portion of the resulting cell suspension in a Coulter counter. For cell types that grow in suspension, portions of the culture were counted directly, without trypsin treatment. Coulter counts of cells from each dish were done twice, and almost all experiments were done in duplicate. In the presentation of results, raw data for Coulter counts is given in some cases, while in others, counts have been rounded off to two to three significant figures. (Background Coulter counts—i.e., counts of diluent alone—were insignificant.)
as §2
• A549 cell cultures were treated with DAP, with or without 5′-dAdo or adenine, for three days. After trypsinization, one-fourth of the cell suspension was counted, and raw data is shown below, with duplicate counts for each sample. […]

MTAP(+) HF cells [5] = assay: Coulter counts of HF cell cultures; type: cell-based, human; conditions: for Coulter counts: x56 = cells/dish
Procedure: For adherent cell types (e.g., HF, A549, MCF7) cells were plated in 60 mm -diameter plastic tissue culture dishes and incubated at 37° C. in a humidified 5% CO2 atmosphere, in Dulbecco's Modified Eagle's Medium (DME) with 10% fetal bovine serum (FBS). At the start of an experiment, medium was replaced with DME and 10% dialyzed FBS.
as §3
Cell cultures were treated with MeP, with or without 5′-dAdo or MTA, for 4 days. The cell cultures were then changed to fresh medium, with the addition of 30 μM Ade to inhibit further action of the analog. Two days later cultures were trypsinized and a portion of the suspension was counted.
• A. F-Ade was added to cultures of HF cells, with varying amounts of 5′-dAdo. After 3 days, cell numbers were counted. • Initial cell count: 1,100 • After three days:
• Cultures of human fibroblasts were treated with DAP, 5′-dAdo, MTA, adenine, or MTX. Thymidine (15 μM) was added to all cultures. • Initial count was: 1807 • Counts, as raw data, after 3 days of incubation, are shown below: […]
• Human fibroblasts in culture were treated with 6-thioguanine (TG), 2,6-diaminopurine (DAP), or 5′-dAdo for 3 days. After trypsinization, cell numbers were counted. • Initial cell number: 296,000

MTAP(+) HF cells [6] = assay: Coculture of HF and A549-ouaR cells, clonogenic assay; type: cell-based, human
Procedure: as §1
(§4) HF and A549-ouaR (a ouabain-resistant derivative of the human lung carcinoma cell line A549, isolated by Applicants) cells were cultured together in a medium containing DAP, and with or without 5′-dAdo. After 3 days, cultures were trypsinized and serially diluted into fresh medium for clonogenic assays. Some dishes were treated with 0.1 μM ouabain to kill HF cells and permit easy visualization of surviving A549-ouaR clones. Initial viable cells: HF cells, 11,000; A549-ouaR cells, 40,000.

MTAP(−) A549-ouaR cells = assay: as above; type: cell-based, human
Procedure: as §1, §4

MTAP(+) ML-1 cells = assay: Coulter counts of ML-1 suspension cultures; type: cell-based
Procedure: For cell types that grow in suspension (e.g., ML-1, HL-60, K-562) medium was RPMI-1640 with 10% FBS (undialyzed).
as §3
For cells that grow in suspension, the effect of treatments was assessed solely by changes in Coulter count.
• ML-1 cells were incubated in RPMI 1640 with 10% FBS with 5′-dAdo (60 μM) for 6 hours. 5-fluorouracil (FU), 6-thioguanine (TG), or 2,6-diaminopurine (DAP) were then added, and after 2 additional days, 0.5 ml was taken for Coulter counts. Initial Coulter count/ml: 308,000

[7] = tested on: MCF7 cells, an MTAP-negative human breast adenocarcinoma cell line; assay: Coculture of HF and MCF7 cells treated with DAP with or without MTA, photographs; type: cell-based
Procedure: (§5) FIGS. 6A and 6B present photographs of experiments examining the efficacy of the selective therapeutic method of the invention in two human-tissue coculture experiments. In both experiments human fibroblasts (HF cells), which are MTAP-positive, and MCF7 cells, an MTAP-negative human breast adenocarcinoma cell line, were seeded together into culture dishes, in DME supplemented with 10% dialyzed fetal bovine serum.
(§6) In the experiment of FIG. 6A the cell coculture was treated for four days with 100 μM DAP and 25 μM MTA. At the end of this period, some of the culture dishes were fixed, to be photographed. Other dishes were trypsinized and diluted five-fold into fresh (drug-free) medium with adenine added (to stop any further toxic action of DAP) and allowed to grow for two more, or five more, days, before being fixed for photography.
(§7) In the experiment of FIG. 6B cell cocultures were treated for three days with 200 μM DAP alone or with the addition of 50 μM MTA, or with no drugs at all. As shown in the photo of the dish without any drugs added to the culture medium, both HF and MCF7 grew very well; many large masses of MCF7 cells are visible, with the elongated HF cells interspersed, confluently, between the MCF7 masses.

[8] = tested on: human fibroblasts (HF cells), MTAP-positive; assay: as above; type: cell-based
Procedure: as §5, §6, §7

[9] = a few days of treatment with 100-200 μM DAP
[10] = three days, DAP 200 μM, MTA 50 μM where present

`Nc1nc(F)nc2nc[nH]c12` [F-Ade, 2-fluoroadenine] was tested, and the “killing of human and mouse tumor cells” value [1] was “very rapid and potent killing”, the “killing of human tumor cells” value ([1]; very short-term assays of 6 to 12 hours) was “effectively kill” and the “toxicity to A549 tumor cells, clonogenic assay” value (MTAP(−) A549 cells [2]; 1 to 2 μM F-Ade) was “highly toxic”. The “Viable Cells” value (MTAP(−) A549 cells [2]; three days, F-Ade 1 μM, MTA, 5′-dAdo or Ade 40 μM where present) was 64, the “Viable Cells” value (MTAP(−) A549 cells [2]; three days, F-Ade 2 μM, MTA, 5′-dAdo or Ade 40 μM where present) was 0 and the “survival of HF cells” value (MTAP(+) HF cells [3]; 2 μM F-Ade, after 3 days) was “no HF cells survive”. The “Viable Cells” value (MTAP(+) HF cells [3]; 3 days, F-Ade 2 μM, 5′-dAdo 30 μM where present, initial viable cells per dish 45,000) was 0*, the Coulter counts (MTAP(−) A549 cells [4]; F-Ade 1 μM) was 7,980 and the Coulter counts (MTAP(−) A549 cells [4]; F-Ade 2 μM) was 7,890. For the same molecule, the Coulter counts (MTAP(+) HF cells [5]; 3 days, F-Ade 0.3 μM, 5′-dAdo 7.5 μM where present, initial count 1,100) was 1478, the Coulter counts (MTAP(+) HF cells [5]; 3 days, F-Ade 0.6 μM, 5′-dAdo 7.5 μM where present, initial count 1,100) was 976 and the “inhibition of HF cell growth” value (MTAP(+) HF cells [5]; increasing concentrations of F-Ade) was “increasing inhibition”.
`Nc1nc(N)c2[nH]cnc2n1` [DAP, 2,6-diaminopurine] was tested, and the “killing of HF cells in coculture” value (MTAP(+) HF cells [6]; DAP alone) was “effectively killed”, the “Viable HF” value (MTAP(+) HF cells [6]; coculture, 3 days, DAP 125 μM, 5′-dAdo 7.5 μM where present, initial viable HF cells 11,000) was 240 and the “killing of A549-ouaR cells in coculture” value (MTAP(−) A549-ouaR cells; DAP alone) was “effectively killed”. The “Viable A549-ouaR” value (MTAP(−) A549-ouaR cells; coculture, 3 days, DAP 125 μM, 5′-dAdo 7.5 μM where present, initial viable A549-ouaR cells 40,000) was 0, the “Increase in cell number/ml, No 5′-dAdo” value (MTAP(+) ML-1 cells; 2 days, FU 3 μM, TG 20 μM, DAP 50 μM where present, initial Coulter count/ml 308,000) was 220,000 /ml and the “inhibition of growth of MTAP(+) ML-1 cells” value (MTAP(+) ML-1 cells; Example 14) was “inhibited growth”. The “killing of human and mouse tumor cells” value [1] was “very rapid and potent killing”, the “toxicity to MTAP(−) A549 cells” value (MTAP(−) A549 cells [2]; 100 μM DAP) was “highly toxic” and the “Viable Cells” value (MTAP(−) A549 cells [2]; 3 days, TG 40 μM, DAP 50 μM where present, initial viable cells 275,000) was 12,000. For the same molecule, the “Viable Cells” value (MTAP(−) A549 cells [2]; MTX 1 μM or alanosine 3 μM for one day, then DAP 40 μM, 3 days (where present), initial viable cells 146,000) was 59,000, the “Viable Cells” value (MTAP(−) A549 cells [2]; three days, DAP 100 μM, 5′-dAdo or Ade 30 μM where present, initial viable cells 180,000) was 0 and the “Coulter counts” value (MTAP(+) HF cells [5]; 3 days, MTX 10 μM, DAP 100 μM, 5′-dAdo, MTA or Ade 15 μM where present, thymidine 15 μM in all cultures, initial count 1807) was 2,483. For the same molecule, the Increase in cells/dish (MTAP(+) HF cells [5]; 3 days, TG 40 μM, DAP 50 μM, 5′-dAdo 60 μM where present, initial cell number 296,000) was 254,000 cells/dish, the “inhibition of MTAP(+) HF cells” value (MTAP(+) HF cells [5]; Example 8) was “inhibited” and the “inhibition of HF cell growth” value (MTAP(+) HF cells [5]; Example 15) was “inhibited”. The “killing of MCF7 cells in coculture” value [7, 9] was “effectively killed”, the “MCF7 cells in coculture (photographs, FIG. 6B)” value [7, 10] was “very few, if any, HF or MCF7 cells have survived” and the “killing of HF cells in coculture” value [8, 9] was “effectively killed”. For the same molecule, the “HF cells in coculture (photographs, FIG. 6B)” value [8, 10] was “very few, if any, HF or MCF7 cells have survived”.
